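A five-concentration, 48-hour dose response in 96-well plates underlies each endpoint, interpolated linearly between surrounding concentrations. The concentration for 50% growth inhibition is given as GI50.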 Calls of active or inactive are those of the source. Cut-off read from the data, not from the text of the source: active = GI50 up to about 1.1 µM and inactive = higher.
Key:
Test in all cases: inhibition of tumour cell growth, NCI panel, 48 h
786-0 = system: 786-0
A498 = system: A498
A549 = system: A549
ACHN = system: ACHN
CAKI-1 = system: CAKI-1
CCRF-CEM = system: CCRF-CEM
COLO 205 = system: COLO 205
DLD-1 = system: DLD-1
DMS-114 = system: DMS-114
DMS-273 = system: DMS-273
EKVX = system: EKVX
HCC 2998 = system: HCC 2998
HCT-116 = system: HCT-116
HCT-15 = system: HCT-15
HL-60 = system: HL-60
HOP-18 = system: HOP-18
HOP-62 = system: HOP-62
HOP-92 = system: HOP-92
HT-29 = system: HT-29
IGROV-1 = system: IGROV-1
K562 = system: K562
KM-20L2 = system: KM-20L2
KM12 = system: KM12
LOX IMVI = system: LOX IMVI
LXFL 529 = system: LXFL 529
M14 = system: M14
M19-MEL = system: M19-MEL
MOLT-4 = system: MOLT-4
Malme-3M = system: Malme-3M
NCI-H226 = system: NCI-H226
NCI-H23 = system: NCI-H23
NCI-H460 = system: NCI-H460
NCI-H522 = system: NCI-H522
OVCAR-3 = system: OVCAR-3
OVCAR-4 = system: OVCAR-4
OVCAR-5 = system: OVCAR-5
OVCAR-8 = system: OVCAR-8
RPMI-8226 = system: RPMI-8226
RXF 393 = system: RXF 393
SF-268 = system: SF-268
SF-295 = system: SF-295
SF-539 = system: SF-539
SK-MEL-28 = system: SK-MEL-28
SK-MEL-2 = system: SK-MEL-2
SK-MEL-5 = system: SK-MEL-5
SK-OV-3 = system: SK-OV-3
SN12C = system: SN12C
SNB-19 = system: SNB-19
SNB-75 = system: SNB-75
SNB-78 = system: SNB-78
SW-620 = system: SW-620
TK-10 = system: TK-10
U-251 = system: U-251
UACC-257 = system: UACC-257
UACC-62 = system: UACC-62
UO-31 = system: UO-31
XF498 = system: XF498
SR = system: SR

## CCCCCCCCCCCCCC(=O)CC(=O)c1c(O)cccc1O
786-0
  GI50: 34.9 µM (inactive)
A498
  GI50: > 100 µM (inactive)
A549
  GI50: 51.1 µM (inactive)
ACHN
  GI50: 28.2 µM (inactive)
CAKI-1
  GI50: 34 µM (inactive)
CCRF-CEM
  GI50: 21.1 µM (inactive)
COLO 205
  GI50: 22.5 µM (inactive)
DLD-1
  GI50: 41.6 µM (inactive)
DMS-114
  GI50: 21.5 µM (inactive)
DMS-273
  GI50: 22.1 µM (inactive)
EKVX
  GI50: 30.6 µM (inactive)
HCC 2998
  GI50: 38.2 µM (inactive)
HCT-116
  GI50: 43.6 µM (inactive)
HCT-15
  GI50: 25.2 µM
HL-60
  GI50: 20.8 µM (inactive)
HOP-18
  GI50: 33.3 µM (inactive)
HOP-62
  GI50: 34.4 µM (inactive)
HOP-92
  GI50: 22.4 µM (inactive)
HT-29
  GI50: 27.2 µM (inactive)
IGROV-1
  GI50: 48 µM (inactive)
K562
  GI50: 21 µM (inactive)
KM-20L2
  GI50: 47.4 µM (inactive)
KM12
  GI50: 41.1 µM (inactive)
LOX IMVI
  GI50: 19.6 µM (inactive)
LXFL 529
  GI50: 35.2 µM (inactive)
M14
  GI50: 44.7 µM (inactive)
M19-MEL
  GI50: 30.5 µM (inactive)
MOLT-4
  GI50: 21.5 µM (inactive)
Malme-3M
  GI50: 28.8 µM (inactive)
NCI-H226
  GI50: 28.4 µM (inactive)
NCI-H23
  GI50: 23 µM (inactive)
NCI-H460
  GI50: 36.1 µM (inactive)
NCI-H522
  GI50: 22.7 µM (inactive)
OVCAR-3
  GI50: 18.9 µM (inactive)
OVCAR-4
  GI50: 33.4 µM (inactive)
OVCAR-5
  GI50: 46.6 µM (inactive)
OVCAR-8
  GI50: 44.3 µM (inactive)
RPMI-8226
  GI50: 25.5 µM (inactive)
RXF 393
  GI50: > 100 µM (inactive)
SF-268
  GI50: 61.8 µM (inactive)
SF-295
  GI50: 42.4 µM (inactive)
SF-539
  GI50: 49.5 µM (inactive)
SK-MEL-28
  GI50: > 100 µM (inactive)
SK-MEL-2
  GI50: 19.2 µM (inactive)
SK-MEL-5
  GI50: > 100 µM (inactive)
SK-OV-3
  GI50: 38.6 µM (inactive)
SN12C
  GI50: 33.6 µM (inactive)
SNB-19
  GI50: 36.4 µM (inactive)
SNB-75
  GI50: 39.5 µM (inactive)
SNB-78
  GI50: 32.3 µM (inactive)
SW-620
  GI50: 23.6 µM (inactive)
TK-10
  GI50: 51.6 µM (inactive)
U-251
  GI50: 35.6 µM (inactive)
UACC-257
  GI50: 32.4 µM (inactive)
UACC-62
  GI50: 47.3 µM (inactive)
UO-31
  GI50: 32.7 µM (inactive)
XF498
  GI50: 24.5 µM (inactive)

## COc1ccc2c(c1)[n+]([O-])c(-c1ccccc1)c(N)[n+]2[O-]
786-0
  GI50: 63.2 µM (inactive)
A498
  GI50: 69.3 µM (inactive)
A549
  GI50: 37.1 µM (inactive)
ACHN
  GI50: 52.6 µM (inactive)
CAKI-1
  GI50: 37.2 µM (inactive)
CCRF-CEM
  GI50: 53 µM (inactive)
COLO 205
  GI50: 20.4 µM (inactive)
DLD-1
  GI50: 45.6 µM (inactive)
DMS-114
  GI50: 25.4 µM (inactive)
DMS-273
  GI50: 34.4 µM (inactive)
EKVX
  GI50: 43.8 µM (inactive)
HCC 2998
  GI50: 54 µM (inactive)
HCT-15
  GI50: 35.3 µM
HL-60
  GI50: 41.6 µM (inactive)
HOP-18
  GI50: 33.6 µM (inactive)
HOP-62
  GI50: 39 µM (inactive)
HT-29
  GI50: 52.7 µM (inactive)
IGROV-1
  GI50: 43.4 µM (inactive)
K562
  GI50: 45.2 µM (inactive)
KM-20L2
  GI50: 46 µM (inactive)
KM12
  GI50: 63.4 µM (inactive)
LOX IMVI
  GI50: 44.1 µM (inactive)
LXFL 529
  GI50: 30.5 µM (inactive)
M14
  GI50: 29.4 µM (inactive)
M19-MEL
  GI50: 39.2 µM (inactive)
MOLT-4
  GI50: 71.3 µM (inactive)
Malme-3M
  GI50: 20.9 µM (inactive)
NCI-H226
  GI50: > 100 µM (inactive)
NCI-H23
  GI50: 23.9 µM (inactive)
NCI-H460
  GI50: 35.6 µM (inactive)
NCI-H522
  GI50: 17.1 µM (inactive)
OVCAR-3
  GI50: 39.8 µM (inactive)
OVCAR-4
  GI50: 47.3 µM (inactive)
OVCAR-5
  GI50: 94 µM (inactive)
OVCAR-8
  GI50: 37.2 µM (inactive)
RPMI-8226
  GI50: 77.1 µM (inactive)
SF-268
  GI50: 30.5 µM (inactive)
SF-295
  GI50: 67.1 µM (inactive)
SF-539
  GI50: 32.4 µM (inactive)
SK-MEL-28
  GI50: 25 µM (inactive)
SK-MEL-2
  GI50: 46 µM (inactive)
SK-MEL-5
  GI50: 18 µM (inactive)
SK-OV-3
  GI50: > 100 µM (inactive)
SN12C
  GI50: 51.8 µM (inactive)
SNB-19
  GI50: 42.5 µM (inactive)
SNB-75
  GI50: > 100 µM (inactive)
SNB-78
  GI50: 44.8 µM (inactive)
SW-620
  GI50: 39.3 µM (inactive)
TK-10
  GI50: > 100 µM (inactive)
U-251
  GI50: 31.3 µM (inactive)
UACC-257
  GI50: 21.2 µM (inactive)
UACC-62
  GI50: 30.3 µM (inactive)
UO-31
  GI50: 63.1 µM (inactive)
XF498
  GI50: 35 µM (inactive)

## CC1OC(n2cc(I)c(=O)[nH]c2=O)C=CC1=O (configuration not stated)
786-0
  GI50: 14 µM (inactive)
A498
  GI50: 16.1 µM (inactive)
A549
  GI50: 26.7 µM (inactive)
ACHN
  GI50: 17.7 µM (inactive)
CAKI-1
  GI50: 16 µM (inactive)
CCRF-CEM
  GI50: 2.43 µM (inactive)
COLO 205
  GI50: 17 µM (inactive)
DLD-1
  GI50: 13.2 µM (inactive)
DMS-114
  GI50: 17 µM (inactive)
DMS-273
  GI50: 17.2 µM (inactive)
EKVX
  GI50: 17.5 µM (inactive)
HCC 2998
  GI50: 17.5 µM (inactive)
HCT-116
  GI50: 11.8 µM (inactive)
HCT-15
  GI50: 17.1 µM
HL-60
  GI50: 6.82 µM (inactive)
HOP-18
  GI50: 16.7 µM (inactive)
HOP-62
  GI50: 18.5 µM (inactive)
HOP-92
  GI50: 19.7 µM (inactive)
HT-29
  GI50: 16.8 µM (inactive)
IGROV-1
  GI50: 20.4 µM (inactive)
K562
  GI50: 3.92 µM (inactive)
KM-20L2
  GI50: 17 µM (inactive)
KM12
  GI50: 13 µM (inactive)
LOX IMVI
  GI50: 6.47 µM (inactive)
LXFL 529
  GI50: 10.8 µM (inactive)
M14
  GI50: 16.9 µM (inactive)
M19-MEL
  GI50: 16.4 µM (inactive)
MOLT-4
  GI50: 14.1 µM (inactive)
Malme-3M
  GI50: 14.9 µM (inactive)
NCI-H226
  GI50: 17.6 µM (inactive)
NCI-H23
  GI50: 17 µM (inactive)
NCI-H460
  GI50: 18.8 µM (inactive)
OVCAR-3
  GI50: 17.5 µM (inactive)
OVCAR-4
  GI50: 16.3 µM (inactive)
OVCAR-5
  GI50: 25 µM (inactive)
OVCAR-8
  GI50: 17.1 µM (inactive)
RPMI-8226
  GI50: 13.9 µM (inactive)
SF-268
  GI50: 14.1 µM (inactive)
SF-295
  GI50: 18.5 µM (inactive)
SF-539
  GI50: 14.1 µM (inactive)
SK-MEL-28
  GI50: 15.7 µM (inactive)
SK-MEL-2
  GI50: 17.9 µM (inactive)
SK-MEL-5
  GI50: 16 µM (inactive)
SK-OV-3
  GI50: 29.2 µM (inactive)
SN12C
  GI50: 18.7 µM (inactive)
SNB-19
  GI50: 17.7 µM (inactive)
SNB-75
  GI50: 17.2 µM (inactive)
SNB-78
  GI50: 14.7 µM (inactive)
SR
  GI50: 12.6 µM (inactive)
SW-620
  GI50: 13.2 µM (inactive)
TK-10
  GI50: 18.6 µM (inactive)
U-251
  GI50: 14.4 µM (inactive)
UACC-257
  GI50: 14.7 µM (inactive)
UACC-62
  GI50: 17.2 µM (inactive)
UO-31
  GI50: 16.9 µM (inactive)
XF498
  GI50: 19.2 µM (inactive)

— ChEMBL document CHEMBL1201862, “PubChem BioAssay data set” (2004)
